{
  "source": "patent US20240368127A1",
  "about": "“HSD17B13 INHIBITORS AND USES THEREOF” (FL2022-001, Inc., priority 2021, published 2024)",
  "target": "T1, Recombinant human HSD17B13 enzyme (Homo sapiens, UniProt Q7Z5P4)",
  "T1 sequence (Q7Z5P4 20-300)": "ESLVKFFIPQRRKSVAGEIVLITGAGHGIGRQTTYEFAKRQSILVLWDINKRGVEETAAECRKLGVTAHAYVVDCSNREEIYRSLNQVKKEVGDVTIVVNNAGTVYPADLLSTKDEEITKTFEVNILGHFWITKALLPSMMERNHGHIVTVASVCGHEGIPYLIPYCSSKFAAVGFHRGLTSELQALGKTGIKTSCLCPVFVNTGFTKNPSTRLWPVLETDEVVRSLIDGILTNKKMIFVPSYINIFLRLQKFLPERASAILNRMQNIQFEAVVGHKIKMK",
  "assay": "HSD17b13 NAD(P)H-Glo biochemical assay",
  "conditions": "50 μM estradiol, 1 mM NAD+, 37° C. for 3 hours; read-out: HSD17β13 IC50",
  "description": "Example B-1: HSD17b13 NAD (P) H-Glo Biochemical Assay\nRecombinant human HSD17B13 enzyme. Substrate: estradiol (Sigma β-Estradiol E8875), 100 mM in DMSO. Cofactor: NAD+ Grade I free acid (Sigma 10127965001), 20 mM in H2O. Assay buffer final concentration: 20 mM Tris pH7.4 with 0.002% Tween-20 and 0.02% BSA. Assay performed in 384 well solid bottom plate (Corning 3570). Enzymatic activity detected by NAD (P) H-Glo™ Detection System (Promega G9062).\nInhibitor compounds were serially diluted in DMSO and then further diluted in assay buffer to a 10× concentration consisting of 1% DMSO.\nHSD17b13 enzyme was diluted in 1× assay buffer to the desired enzyme concentration based on the specific activity of the enzyme lot. 20 μL of diluted enzyme was added to each well along with 2.5 μL of 10× inhibitor solution. Assay plate was incubated at RT for 20 minutes, and then 2.5 μL of a 10× substrate/cofactor mix was added to each well for a final concentration of 50 μM estradiol and 1 mM NAD+. Assay plate was incubated at 37° C. for 3 hours. NAD (P) H-Glo™ Detection System reagents were prepared according to manufacturer's specifications, and 25 μL was added to each well. After incubating for 1 hour at RT, luminescence was measured.",
  "data": [
    {"smiles": "Cc1nn(-c2ccc(F)c(O)c2F)c2cnc(N3CCN(S(C)(=O)=O)C[C@H]3Cc3ccccc3)cc12", "note": "[Compound 2.15, (R)-3-(5-(2-Benzyl-4-(methylsulfonyl)piperazin-1-yl)-3-methyl-1H-pyrazolo[3,4-c]pyridin-1-yl)-2,6-difluorophenol]", "values": [
      {"measurement": "IC50", "value": "≤ 100", "unit": "nM"}
    ]},
    {"smiles": "Cc1nn(-c2ccc(Cl)c(O)c2F)c2cnc(N3CCN(S(C)(=O)=O)C[C@H]3Cc3ccccc3)cc12", "note": "[Compound 2.16, (R)-3-(5-(2-Benzyl-4-(methylsulfonyl)piperazin-1-yl)-3-methyl-1H-pyrazolo[3,4-c]pyridin-1-yl)-6-chloro-2-fluorophenol]", "values": [
      {"measurement": "IC50", "value": "≤ 100", "unit": "nM"}
    ]},
    {"smiles": "Cc1nn(-c2ncc(Cl)c(O)c2F)c2cnc(N3CCN(S(C)(=O)=O)C[C@H]3Cc3ccccc3)cc12", "note": "[Compound 2.17, (R)-2-(5-(2-Benzyl-4-(methylsulfonyl)piperazin-1-yl)-3-methyl-1H-pyrazolo[3,4-c]pyridin-1-yl)-5-chloro-3-fluoropyridin-4-ol]", "values": [
      {"measurement": "IC50", "value": "100 to 1000", "unit": "nM"}
    ]},
    {"smiles": "CS(=O)(=O)N1CCN(c2ncc3c(n2)c(Cl)nn3-c2cc(C(F)(F)F)c(F)c(O)c2F)[C@H](Cc2ccccc2)C1", "note": "[Compound 2.18, (R)-3-(5-(2-Benzyl-4-(methylsulfonyl)piperazin-1-yl)-3-chloro-1H-pyrazolo[4,3-d]pyrimidin-1-yl)-2,6-difluoro-5-(trifluoromethyl)phenol]", "values": [
      {"measurement": "IC50", "value": "≤ 100", "unit": "nM"}
    ]},
    {"smiles": "CS(=O)(=O)N1CCN(c2cc3cnn(-c4cc(C(F)(F)F)c(F)c(O)c4F)c3cn2)[C@H](Cc2ccccc2)C1", "note": "[Compound 2.19, (R)-3-(5-(2-Benzyl-4-(methylsulfonyl)piperazin-1-yl)-1H-pyrazolo[3,4-c]pyridin-1-yl)-2,6-difluoro-5-(trifluoromethyl)phenol]", "values": [
      {"measurement": "IC50", "value": "≤ 100", "unit": "nM"}
    ]},
    {"smiles": "CS(=O)(=O)N1CCN(c2cc3c(Cl)nn(-c4cc(C(F)(F)F)c(F)c(O)c4F)c3cn2)[C@H](Cc2ccccc2)C1", "note": "[Compound 2.20, (R)-3-(5-(2-Benzyl-4-(methylsulfonyl)piperazin-1-yl)-3-chloro-1H-pyrazolo[3,4-c]pyridin-1-yl)-2,6-difluoro-5-(trifluoromethyl)phenol]", "values": [
      {"measurement": "IC50", "value": "≤ 100", "unit": "nM"}
    ]},
    {"smiles": "Cc1nn(-c2cc(C(F)(F)F)c(Cl)c(O)c2F)c2cnc(N3CCN(S(C)(=O)=O)C[C@H]3Cc3ccccc3)nc12", "note": "[Compound 2.21, (R)-3-(5-(2-Benzyl-4-(methylsulfonyl)piperazin-1-yl)-3-methyl-1H-pyrazolo[4,3-d]pyrimidin-1-yl)-6-chloro-2-fluoro-5-(trifluoromethyl)phenol]", "values": [
      {"measurement": "IC50", "value": "≤ 100", "unit": "nM"}
    ]},
    {"smiles": "CS(=O)(=O)N1CCN(c2cc3c(Cl)nn(-c4cc(C(F)(F)F)c(Cl)c(O)c4F)c3cn2)[C@H](Cc2ccccc2)C1", "note": "[Compound 2.22, (R)-3-(5-(2-Benzyl-4-(methylsulfonyl)piperazin-1-yl)-3-chloro-1H-pyrazolo[3,4-c]pyridin-1-yl)-6-chloro-2-fluoro-5-(trifluoromethyl)phenol]", "values": [
      {"measurement": "IC50", "value": "≤ 100", "unit": "nM"}
    ]},
    {"smiles": "CS(=O)(=O)N1CCN(c2cc3c(N)nn(-c4cc(C(F)(F)F)c(F)c(O)c4F)c3cn2)[C@H](Cc2ccccc2)C1", "note": "[Compound 2.23, (R)-3-(3-Amino-5-(2-benzyl-4-(methylsulfonyl)piperazin-1-l)-1H-pyrazolo[3,4-c]pyridin-1-yl)-2,6-difluoro-5-(trifluoromethyl)phenol]", "values": [
      {"measurement": "IC50", "value": "≤ 100", "unit": "nM"}
    ]},
    {"smiles": "CNc1nn(-c2cc(C(F)(F)F)c(F)c(O)c2F)c2cnc(N3CCN(S(C)(=O)=O)C[C@H]3Cc3ccccc3)cc12", "note": "[Compound 2.24, (R)-3-(5-(2-Benzyl-4-(methylsulfonyl)piperazin-1-yl)-3-(methylamino)-1H-pyrazolo[3,4-c]pyridin-1-yl)-2,6-difluoro-5-(trifluoromethyl)phenol]", "values": [
      {"measurement": "IC50", "value": "≤ 100", "unit": "nM"}
    ]},
    {"smiles": "CN(C)c1nn(-c2cc(C(F)(F)F)c(F)c(O)c2F)c2ccc(N3CCN(S(C)(=O)=O)C[C@H]3Cc3ccccc3)cc12", "note": "[Compound 2.25, (R)-3-(5-(2-Benzyl-4-(methylsulfonyl)piperazin-1-yl)-3-(dimethylamino)-1H-indazol-1-yl)-2,6-difluoro-5-(trifluoromethyl)phenol]", "values": [
      {"measurement": "IC50", "value": "≤ 100", "unit": "nM"}
    ]},
    {"smiles": "Cc1nn(-c2cc(O)cc(C(F)(F)F)c2)c2ccc(N3CCN(S(C)(=O)=O)C[C@H]3Cc3ccccc3)cc12", "note": "[Compound 2.26, (R)-3-(5-(2-Benzyl-4-(methylsulfonyl)piperazin-1-yl)-3-methyl-1H-indazol-1-yl)-5-(trifluoromethyl)phenol]", "values": [
      {"measurement": "IC50", "value": "100 to 1000", "unit": "nM"}
    ]},
    {"smiles": "Cc1nn(-c2cc(C(F)(F)F)c(Cl)c(O)c2F)c2ccc(N3CCN(S(C)(=O)=O)C[C@H]3Cc3ccccc3)cc12", "note": "[Compound 2.27, (R)-3-(5-(2-Benzyl-4-(methylsulfonyl)piperazin-1-yl)-3-methyl-1H-indazol-1-yl)-6-chloro-2-fluoro-5-(trifluoromethyl)phenol]", "values": [
      {"measurement": "IC50", "value": "≤ 100", "unit": "nM"}
    ]},
    {"smiles": "Cc1nn(-c2cc(C(F)(F)F)cc(O)c2F)c2ccc(N3CCN(S(C)(=O)=O)C[C@H]3Cc3ccccc3)cc12", "note": "[Compound 2.28, (R)-3-(5-(2-Benzyl-4-(methylsulfonyl)piperazin-1-yl)-3-methyl-1H-indazol-1-yl)-2-fluoro-5-(trifluoromethyl)phenol]", "values": [
      {"measurement": "IC50", "value": "≤ 100", "unit": "nM"}
    ]},
    {"smiles": "Cc1c2cc(N3CCN(S(C)(=O)=O)C[C@H]3Cc3ccccc3)ccc2nn1-c1cc(O)cc(C(F)(F)F)n1", "note": "[Compound 2.30, (R)-2-(5-(2-Benzyl-4-(methylsulfonyl)piperazin-1-yl)-3-methyl-2H-indazol-2-yl)-6-(trifluoromethyl)pyridin-4-ol]", "values": [
      {"measurement": "IC50", "value": "1000 to 30000", "unit": "nM"}
    ]},
    {"smiles": "Cc1nn(-c2cc(C(F)(F)F)c(F)c(O)c2F)c2cnc(N3CCOC[C@H]3Cc3ccccc3)nc12", "note": "[Compound 2.31, (R)-3-(5-(3-Benzylmorpholino)-3-methyl-1H-pyrazolo[4,3-d]pyrimidin-1-yl)-2,6-difluoro-5-(trifluoromethyl)phenol]", "values": [
      {"measurement": "IC50", "value": "≤ 100", "unit": "nM"}
    ]},
    {"smiles": "CCN1CCN(c2ncc3c(n2)c(C)nn3-c2cc(C(F)(F)F)c(F)c(O)c2F)[C@H](Cc2ccccc2)C1", "note": "[Compound 2.32, (R)-3-(5-(2-Benzyl-4-ethylpiperazin-1-yl)-3-methyl-1H-pyrazolo[4,3-d]pyrimidin-1-yl)-2,6-difluoro-5-(trifluoromethyl)phenol]", "values": [
      {"measurement": "IC50", "value": "≤ 100", "unit": "nM"}
    ]},
    {"smiles": "Cc1nn(-c2cc(C(F)(F)F)c(F)c(O)c2F)c2cc(F)c(N3CCN(S(C)(=O)=O)C[C@H]3Cc3ccccc3)nc12", "note": "[Compound 2.33, (R)-3-(5-(2-Benzyl-4-(methylsulfonyl)piperazin-1-yl)-6-fluoro-3-methyl-1H-pyrazolo[4,3-b]pyridin-1-yl)-2,6-difluoro-5-(trifluoromethyl)phenol]", "values": [
      {"measurement": "IC50", "value": "≤ 100", "unit": "nM"}
    ]},
    {"smiles": "Cc1nn(-c2cc(C(F)(F)F)c(F)c(O)c2F)c2cc(Cl)c(N3CCN(S(C)(=O)=O)C[C@H]3Cc3ccccc3)nc12", "note": "[Compound 2.34, (R)-3-(5-(2-Benzyl-4-(methylsulfonyl)piperazin-1-yl)-6-chloro-3-methyl-1H-pyrazolo[4,3-b]pyridin-1-yl)-2,6-difluoro-5-(trifluoromethyl)phenol]", "values": [
      {"measurement": "IC50", "value": "≤ 100", "unit": "nM"}
    ]},
    {"smiles": "Cc1nn(-c2cc(Cl)c(F)c(O)c2F)c2cnc(N3CCN(S(C)(=O)=O)C[C@H]3Cc3ccccc3)nc12", "note": "[Compound 2.35, (R)-3-(5-(2-Benzyl-4-(methylsulfonyl)piperazin-1-yl)-3-methyl-1H-pyrazolo[4,3-c]pyrimidin-1-yl)-5-chloro-2,6-difluorophenol]", "values": [
      {"measurement": "IC50", "value": "≤ 100", "unit": "nM"}
    ]},
    {"smiles": "CS(=O)(=O)N1CCN(c2ncc3c(cnn3-c3cc(O)c(F)c(C(F)(F)F)c3)n2)[C@H](Cc2ccccc2)C1", "note": "[Compound 2.36, (R)-5-(5-(2-Benzyl-4-(methylsulfonyl)piperazin-1-yl)-1H-pyrazolo[4,3-d]pyrimidin-1-yl)-2-fluoro-3-(trifluoromethyl)phenol]", "values": [
      {"measurement": "IC50", "value": "≤ 100", "unit": "nM"}
    ]},
    {"smiles": "Cn1nc(-c2cc(C(F)(F)F)c(F)c(O)c2F)c2cnc(N3CCN(S(C)(=O)=O)C[C@H]3Cc3ccccc3)nc21", "note": "[Compound 5, (R)-3-(6-(2-Benzyl-4-(methylsulfonyl)piperazin-1-yl)-1-methyl-1H-pyrazolo[3,4-d]pyrimidin-3-yl)-2,6-difluoro-5-(trifluoromethyl)phenol]", "values": [
      {"measurement": "IC50", "value": "≤ 100", "unit": "nM"}
    ]},
    {"smiles": "Cn1nc(-c2cc(C(F)(F)F)c(F)c(O)c2F)c2cnc(N3CCOCC3CC3CC3)nc21", "note": "(stereo not shown) [Compound 5.01, 3-(6-(3-(Cyclopropylmethyl)morpholino)-1-methyl-1H-pyrazolo[3,4-d]pyrimidin-3-yl)-2,6-difluoro-5-(trifluoromethyl)phenol]", "values": [
      {"measurement": "IC50", "value": "≤ 100", "unit": "nM"}
    ]},
    {"smiles": "Cn1nc(-c2cc(C(F)(F)F)c(F)c(O)c2F)c2cnc(N3CCOC(Cc4ccccc4)C3)nc21", "note": "(stereo not shown) [Compound 5.02, 3-(6-(2-Benzylmorpholino)-1-methyl-1H-pyrazolo[3,4-d]pyrimidin-3-yl)-2,6-difluoro-5-(trifluoromethyl)phenol]", "values": [
      {"measurement": "IC50", "value": "≤ 100", "unit": "nM"}
    ]},
    {"smiles": "Cn1nc(-c2cc(C(F)(F)F)c(F)c(O)c2F)c2cnc(N3CCOCC3Cc3ccccc3)nc21", "note": "(stereo not shown) [Compound 5.03, 3-(6-(3-Benzylmorpholino)-1-methyl-1H-pyrazolo[3,4-d]pyrimidin-3-yl)-2,6-difluoro-5-(trifluoromethyl)phenol]", "values": [
      {"measurement": "IC50", "value": "≤ 100", "unit": "nM"}
    ]}
  ]
}
